Results taken from ChEMBL document CHEMBL4219053, “Antiobesity and emetic effects of a short-length peptide YY analog and its PEGylated and alkylated derivatives” (Bioorg Med Chem, 2018).

Key:
[1] = target: T1, Neuropeptide Y receptor type 2 (Homo sapiens, UniProt P49146); experiment: Displacement of [125I]-PYY from human neuropeptide Y2 receptor expressed in CHO cell membranes incubated for 60 mins by TopCount micro scintillation analysis
T1 sequence (P49146 whole entry): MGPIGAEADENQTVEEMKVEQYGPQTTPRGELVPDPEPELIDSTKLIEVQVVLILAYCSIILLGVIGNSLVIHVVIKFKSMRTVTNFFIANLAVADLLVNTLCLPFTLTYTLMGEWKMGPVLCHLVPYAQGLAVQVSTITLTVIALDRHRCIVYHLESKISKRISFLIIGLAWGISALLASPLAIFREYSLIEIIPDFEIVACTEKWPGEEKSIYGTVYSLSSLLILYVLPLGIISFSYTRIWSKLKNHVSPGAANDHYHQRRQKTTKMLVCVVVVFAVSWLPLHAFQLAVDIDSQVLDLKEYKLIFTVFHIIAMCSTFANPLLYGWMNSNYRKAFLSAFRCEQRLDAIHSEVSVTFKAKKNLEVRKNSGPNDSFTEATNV

Mus musculus [2] = experiment: Anorectic activity in C57BL/6J mouse assessed as inhibition of food intake at 30 nmol/kg, sc qd for 3 days relative to control; format: functional; details: 72 h
Mus musculus [3] = experiment: Antiobesity activity in DIO C57BL/6J mouse assessed as reduction in body weight at 10 nmol/kg, sc qd for 2 weeks; format: functional; set-up: scale not given: the % may be the effect or the level left
Mus musculus [4] = experiment: Antiobesity activity in DIO C57BL/6J mouse assessed as reduction in body weight at 3 nmol/kg, sc qd for 2 weeks; format: functional; set-up: scale not given: the % may be the effect or the level left
[5] = Cmax in C57BL/6J mouse at 10 nmol/kg, sc by LC-MS/MS analysis; format: ADME, organism-based; set-up: dose 10 nmol/kg, route subcutaneous; details: in vivo
[6] = Tmax in C57BL/6J mouse at 10 nmol/kg, sc by LC-MS/MS analysis; format: ADME, organism-based; details: in vivo
[7] = AUC (0 to 48 hrs) in C57BL/6J mouse at 10 nmol/kg, sc by LC-MS/MS analysis; format: ADME, organism-based; set-up: dose 10 nmol/kg, time < 48 hr, route subcutaneous; details: in vivo
[8] = Mean residence time in C57BL/6J mouse at 10 nmol/kg, sc by LC-MS/MS analysis; format: ADME, organism-based; details: in vivo
[9] = Tmax in Beagle dog at 3 nmol/kg, sc; format: ADME, organism-based, Canis lupus familiaris; details: in vivo
[10] = Cmax in Beagle dog at 3 nmol/kg, sc; format: ADME, organism-based, Canis lupus familiaris; set-up: dose 3 nmol/kg, route subcutaneous; details: in vivo
[11] = Solubility of the compound in water; format: physicochemical; details: buffer
Mus musculus [12] = experiment: Antiobesity activity in DIO C57BL/6J mouse assessed as reduction in body weight at 30 nmol/kg, sc qd for 2 weeks; format: functional; set-up: scale not given: the % may be the effect or the level left
Canis familiaris [13] = experiment: Emetic effect in Beagle dog at 3 nmol/kg, sc measured up to 4 hrs; format: ADME, organism-based, Canis lupus familiaris; details: in vivo
Canis familiaris [14] = experiment: Emetic effect in Beagle dog at 3 nmol/kg, sc measured after 4 to 8 hrs; format: ADME, organism-based, Canis lupus familiaris; details: in vivo

Row | SMILES | IC50 [1] [nM] | inhibition in vivo at 0.03 µmol/kg (Mus musculus [2]) [%] | Activity (Mus musculus [3]) [%] | solubility [11] | Activity (Mus musculus [12]) [%] | other results
1 | CC[C@](C)(NC(=O)[C@H]1C[C@H](O)CN1C(=O)[C@H](CO)NC(=O)c1c[nH]cn1)C(=O)N[C@@H](Cc1ccncc1)C(=O)N[C@@H](CC1CCCCC1)C(=O)N[C@@H](CC(C)(C)C)C(=O)N[C@@H](CC(N)=O)C(=O)N[C@@H](CCCCNC(=O)COCC(=O)NCCCOCCOCCOCCCNC(=O)CC[C@H](NC(=O)[C@H]1CC[C@H](CNC(=O)CCCCCCCCCCCCCCCCCCC(=O)O)CC1)C(=O)O)C(=O)NC(C)(C)C(=O)N[C@H](C(=O)N[C@@H](CCCNC(=N)N)C(=O)N[C@@H](CCC(N)=O)C(=O)N[C@@H](CCCNC(=N)N)C(=O)N[C@@H](CC1CCCCC1)C(N)=O)[C@@H](C)O | 24 | 30 |  |  |  | 
2 | CCCCCCCCCCCCCCCC(=O)NC[C@H]1CC[C@H](C(=O)N[C@@H](CCC(=O)NCCCOCCOCCOCCCNC(=O)COCC(=O)N[C@@H](CO)C(=O)N2C[C@@H](O)C[C@@H]2C(=O)N[C@@H](CCCNC(=N)N)C(=O)N[C@@H](Cc2ccncc2)C(=O)N[C@@H](CC2CCCCC2)C(=O)NC(C)(C)C(=O)N[C@@H](CC(N)=O)C(=O)N[C@@H](CCCCNC(=O)C2CCNCC2)C(=O)NC(C)(C)C(=O)N[C@H](C(=O)N[C@@H](CCCNC(=N)N)C(=O)N[C@@H](CCC(N)=O)C(=O)N[C@@H](CCCNC(=N)N)C(=O)N[C@@H](CC2CCCCC2)C(N)=O)[C@@H](C)O)C(=O)O)CC1 | 0.19 | 68.3 | -19 |  |  | Activity (Mus musculus [4]): -18.4%; Cmax [5]: 3.6 nM; Tmax [6]: 1 h; AUC(0-t) at 48 h [7]: 0.0122 µM·h; MRT [8]: 1.7 h; Tmax [9]: 2.5 h; Cmax [10]: 0.9 nM
3 | CC[C@](C)(NC(=O)[C@H]1C[C@H](O)CN1C(=O)[C@H](CO)NC(=O)c1c[nH]cn1)C(=O)N[C@@H](Cc1ccncc1)C(=O)N[C@@H](CC1CCCCC1)C(=O)N[C@@H](CC(C)(C)C)C(=O)N[C@@H](CC(N)=O)C(=O)N[C@@H](CCCCNC(=O)[C@@H](N)CCCCNC(=O)COCC(=O)NCCCOCCOCCOCCCNC(=O)CC[C@H](NC(=O)[C@H]1CC[C@H](CNC(=O)CCCCCCCCCCCCCCCCCCC(=O)O)CC1)C(=O)O)C(=O)NC(C)(C)C(=O)N[C@H](C(=O)N[C@@H](CCCNC(=N)N)C(=O)N[C@@H](CCC(N)=O)C(=O)N[C@@H](CCCNC(=N)N)C(=O)N[C@@H](CC1CCCCC1)C(N)=O)[C@@H](C)O | 13 | 67 |  | Insoluble |  | 
4 | CC[C@](C)(NC(=O)[C@H]1C[C@H](O)CN1C(=O)[C@H](CO)NC(=O)COCC(=O)NCCCOCCOCCOCCCNC(=O)CC[C@H](NC(=O)[C@H]1CC[C@H](CNC(=O)CCCCCCCCCCCCCCCCCCC(=O)O)CC1)C(=O)O)C(=O)N[C@@H](Cc1ccncc1)C(=O)N[C@@H](CC1CCCCC1)C(=O)N[C@@H](CC(C)(C)C)C(=O)N[C@@H](CC(N)=O)C(=O)N[C@@H](CCCCNC(C)=O)C(=O)NC(C)(C)C(=O)N[C@H](C(=O)N[C@@H](CCCNC(=N)N)C(=O)N[C@@H](CCC(N)=O)C(=O)N[C@@H](CCCNC(=N)N)C(=O)N[C@@H](CC1CCCCC1)C(N)=O)[C@@H](C)O | 7.6 | 43 |  |  | -6.1 | 
5 | C[C@@H](O)[C@H](NC(=O)C(C)(C)NC(=O)[C@H](CCCCNC(=O)C1CCNCC1)NC(=O)[C@H](CC(N)=O)NC(=O)C(C)(C)NC(=O)[C@H](CC1CCCCC1)NC(=O)[C@H](Cc1ccncc1)NC(=O)[C@H](CCCNC(=N)N)NC(=O)[C@H]1C[C@H](O)CN1C(=O)[C@H](CO)NC(=O)COCC(=O)NCCCOCCOCCOCCCNC(=O)CC[C@H](NC(=O)[C@H]1CC[C@H](CNC(=O)CCCCCCCCCCCCCCCCCCC(=O)O)CC1)C(=O)O)C(=O)N[C@@H](CCCNC(=N)N)C(=O)N[C@@H](CCC(N)=O)C(=O)N[C@@H](CCCNC(=N)N)C(=O)N[C@@H](CC1CCCCC1)C(N)=O | 4.5 | 67.3 | -11.6 |  | -17.2 | 
6 | CC[C@](C)(NC(=O)[C@H]1C[C@H](O)CN1C(=O)[C@H](CO)NC(=O)COCC(=O)NCCCOCCOCCOCCCNC(=O)CC[C@H](NC(=O)[C@H]1CC[C@H](CNC(=O)CCCCCCCCCCCCCCCCCCC(=O)O)CC1)C(=O)O)C(=O)N[C@@H](Cc1ccncc1)C(=O)N[C@@H](CC1CCCCC1)C(=O)N[C@@H](CC(C)(C)C)C(=O)N[C@@H](CC(N)=O)C(=O)N[C@@H](CCCCN)C(=O)NC(C)(C)C(=O)N[C@H](C(=O)N[C@@H](CCCNC(=N)N)C(=O)N[C@@H](CCC(N)=O)C(=O)N[C@@H](CCCNC(=N)N)C(=O)N[C@@H](CC1CCCCC1)C(N)=O)[C@@H](C)O | 13 | 47.8 |  |  | -15.1 | 
7 | CCCCCCCCCCCCCCCC(=O)NC[C@H]1CC[C@H](C(=O)N[C@@H](CCC(=O)NCCCOCCOCCOCCCNC(=O)COCC(=O)NCCCC[C@H](N)C(=O)NCCCC[C@H](NC(=O)[C@H](CC(N)=O)NC(=O)C(C)(C)NC(=O)[C@H](CC2CCCCC2)NC(=O)[C@H](Cc2ccncc2)NC(=O)[C@H](CCCNC(=N)N)NC(=O)[C@H]2C[C@H](O)CN2C(=O)[C@H](CO)NC(=O)c2c[nH]cn2)C(=O)NC(C)(C)C(=O)N[C@H](C(=O)N[C@@H](CCCNC(=N)N)C(=O)N[C@@H](CCC(N)=O)C(=O)N[C@@H](CCCNC(=N)N)C(=O)N[C@@H](CC2CCCCC2)C(N)=O)[C@@H](C)O)C(=O)O)CC1 | 0.19 | 36 |  |  |  | 
8 | C[C@@H](O)[C@H](NC(=O)C(C)(C)NC(=O)[C@H](CCCCNC(=O)[C@@H](N)CCCCNC(=O)COCC(=O)NCCCOCCOCCOCCCNC(=O)CC[C@H](NC(=O)[C@H]1CC[C@H](CNC(=O)CCCCCCCCCCCCCCCCCCC(=O)O)CC1)C(=O)O)NC(=O)[C@H](CC(N)=O)NC(=O)[C@H](CC(C)(C)C)NC(=O)[C@H](CC1CCCCC1)NC(=O)[C@H](Cc1ccncc1)NC(=O)[C@H](CCCNC(=N)N)NC(=O)[C@H]1C[C@H](O)CN1C(=O)[C@H](CO)NC(=O)c1c[nH]cn1)C(=O)N[C@@H](CCCNC(=N)N)C(=O)N[C@@H](CCC(N)=O)C(=O)N[C@@H](CCCNC(=N)N)C(=O)N[C@@H](CC1CCCCC1)C(N)=O | 3.4 | 58 |  | Soluble | -23.1 | 
9 | CC[C@](C)(NC(=O)[C@H]1C[C@H](O)CN1C(=O)[C@H](CO)NC(=O)COCC(=O)NCCCOCCOCCOCCCNC(=O)CC[C@H](NC(=O)[C@H]1CC[C@H](CNC(=O)CCCCCCCCCCCCCCCCCCC(=O)O)CC1)C(=O)O)C(=O)N[C@@H](Cc1ccncc1)C(=O)N[C@@H](CC1CCCCC1)C(=O)N[C@@H](CC(C)(C)C)C(=O)N[C@@H](CC(N)=O)C(=O)N[C@@H](CCCCNC(=O)C1CCNCC1)C(=O)NC(C)(C)C(=O)N[C@H](C(=O)N[C@@H](CCCNC(=N)N)C(=O)N[C@@H](CCC(N)=O)C(=O)N[C@@H](CCCNC(=N)N)C(=O)N[C@@H](CC1CCCCC1)C(N)=O)[C@@H](C)O | 7.6 | 52.8 |  |  | -22.3 | 
10 | C[C@@H](O)[C@H](NC(=O)C(C)(C)NC(=O)[C@H](CCCCNC(=O)[C@@H](N)CCCCNC(=O)COCC(=O)NCCCOCCOCCOCCCNC(=O)CC[C@H](NC(=O)[C@H]1CC[C@H](CNC(=O)CCCCCCCCCCCCCCCCCCC(=O)O)CC1)C(=O)O)NC(=O)[C@H](CC(N)=O)NC(=O)C(C)(C)NC(=O)[C@H](CC1CCCCC1)NC(=O)[C@H](Cc1ccncc1)NC(=O)[C@H](CCCNC(=N)N)NC(=O)[C@H]1C[C@H](O)CN1C(=O)[C@H](CO)NC(=O)c1c[nH]cn1)C(=O)N[C@@H](CCCNC(=N)N)C(=O)N[C@@H](CCC(N)=O)C(=O)N[C@@H](CCCNC(=N)N)C(=O)N[C@@H](CC1CCCCC1)C(N)=O | 8 | 61 | -16.5 | Soluble | -20.7 | Activity (Mus musculus [4]): -8%; Cmax [5]: 32 nM; Tmax [6]: 4 h; AUC(0-t) at 48 h [7]: 0.373 µM·h; MRT [8]: 9.3 h; Activity (Canis familiaris [13]): Non-Toxic; Activity (Canis familiaris [14]): Toxic; Tmax [9]: 24 h; Cmax [10]: 10.8 nM
